Data set [1] has as its target AChE from electric eel (EeAChE) (Electrophorus electricus, UniProt O42275). The data set can be described thus: biochemical. Format: biochemical.
The target of data set [2] is BuChE from equine serum (EqBuChE) (Equus caballus, UniProt P81908). The data set can be described thus: biochemical. Conditions: read-out: IC50 BuChE.
Data set [3] relates to HepG2 cells.
Experimental: Cytotoxicity of the tested compounds was measured using the standard hepatic cell line HepG2. The used CellTiter 96® assay is based on the reduction of tetrazolium dye (MTS) in living cells to formazan, which is then determined colorimetrically.
Data set [4] deals with Staphylococcus aureus ATCC 29213. The data set can be described thus: Antibacterial microdilution broth method (EUCAST). Format: cell-based. Background: Broth dilution looks for growth in wells or tubes with falling amounts of substance.
Data set [5] relates to methicillin-resistant Staphylococcus aureus ATCC 43300. The data set can be described thus: Antibacterial microdilution broth method (EUCAST). Conditions: ATCC 43300 / MRSA. Format: cell-based.
In data set [6] the test system is Staphylococcus epidermidis ATCC 12228. The data set can be described thus: Antibacterial microdilution broth method (EUCAST). Format: cell-based.
The subject of data set [7] is Enterococcus faecalis ATCC 29212. As to the kind of experiment: Antibacterial microdilution broth method (EUCAST). Format: cell-based.
The test system of data set [8] is Escherichia coli ATCC 25922. The data set can be described thus: Antibacterial microdilution broth method (EUCAST). Format: cell-based.
Data set [9] relates to Acinetobacter baumannii ATCC 19606. The data set can be described thus: Antibacterial microdilution broth method (EUCAST). Format: cell-based.
The test system of data set [10] is Pseudomonas aeruginosa ATCC 27853. The data set can be described thus: Antibacterial microdilution broth method (EUCAST). Format: cell-based.
Data set [11] deals with Candida albicans ATCC 24443. The data set can be described thus: microbe, parasite or virus in culture. Format: cell-based.
In data set [12] the test system is Candida krusei ATCC 6258. The data set can be described thus: microbe, parasite or virus in culture. Format: cell-based. Conditions: Pichia kudriavzevii.
Data set [13] deals with Candida parapsilosis ATCC 22019. As to the kind of experiment: microbe, parasite or virus in culture. Format: cell-based. Conditions: Lodderomyces parapsilosis.
In data set [14] the test system is Candida tropicalis ATCC 750. As to the kind of experiment: microbe, parasite or virus in culture. Format: cell-based.
For data set [15], the system named is Trichophyton interdigitale ATCC 9533. The data set can be described thus: microbe, parasite or virus in culture. Format: cell-based.
The subject of data set [16] is Klebsiella pneumoniae ATCC 10031.
The mark [17] stands for this setting: mean ± SD, n = three independent experiments, BTCh 40 µM.

In brackets after ≈: the same amount, converted by molar mass. Several values for one entry are separate records, joined by “and”; a condition that tells them apart may be missing. Equal entries are not always repeated. Where two headings read alike, the source gives them in different places. Where only a bound is given, the exact number is not on record here.

BuChE from equine serum (EqBuChE), sequence (P81908 whole entry): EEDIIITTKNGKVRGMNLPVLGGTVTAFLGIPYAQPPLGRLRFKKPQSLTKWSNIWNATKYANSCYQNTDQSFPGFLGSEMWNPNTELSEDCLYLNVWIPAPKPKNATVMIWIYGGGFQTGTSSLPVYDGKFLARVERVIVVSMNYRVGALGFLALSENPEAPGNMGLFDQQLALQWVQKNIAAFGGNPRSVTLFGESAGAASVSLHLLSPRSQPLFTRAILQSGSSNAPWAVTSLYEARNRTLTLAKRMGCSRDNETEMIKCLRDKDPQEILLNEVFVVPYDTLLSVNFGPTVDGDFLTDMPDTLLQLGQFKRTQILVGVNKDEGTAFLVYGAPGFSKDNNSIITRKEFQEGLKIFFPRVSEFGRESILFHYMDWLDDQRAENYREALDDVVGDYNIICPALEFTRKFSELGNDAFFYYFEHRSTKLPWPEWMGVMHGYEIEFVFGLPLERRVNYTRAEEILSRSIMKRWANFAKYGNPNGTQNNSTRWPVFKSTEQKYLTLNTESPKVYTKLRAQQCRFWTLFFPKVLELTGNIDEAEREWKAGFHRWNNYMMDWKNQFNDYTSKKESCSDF
AChE from electric eel (EeAChE), sequence (O42275 24-633): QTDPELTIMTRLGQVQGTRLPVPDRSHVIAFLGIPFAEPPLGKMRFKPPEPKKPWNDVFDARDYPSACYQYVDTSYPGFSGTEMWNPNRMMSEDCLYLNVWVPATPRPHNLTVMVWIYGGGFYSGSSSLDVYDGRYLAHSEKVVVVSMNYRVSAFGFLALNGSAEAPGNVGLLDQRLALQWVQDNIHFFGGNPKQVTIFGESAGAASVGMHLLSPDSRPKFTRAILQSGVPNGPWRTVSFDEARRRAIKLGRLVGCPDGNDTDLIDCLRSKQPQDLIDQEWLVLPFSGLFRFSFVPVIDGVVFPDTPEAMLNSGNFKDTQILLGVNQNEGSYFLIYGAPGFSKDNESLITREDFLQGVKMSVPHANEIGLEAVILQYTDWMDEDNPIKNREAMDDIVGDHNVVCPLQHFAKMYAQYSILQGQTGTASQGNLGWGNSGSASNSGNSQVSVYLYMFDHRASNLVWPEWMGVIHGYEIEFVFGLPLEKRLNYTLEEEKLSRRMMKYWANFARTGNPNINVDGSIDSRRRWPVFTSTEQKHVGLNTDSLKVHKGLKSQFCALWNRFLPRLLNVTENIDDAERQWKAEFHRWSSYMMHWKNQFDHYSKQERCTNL

One may read the IC50 as the midpoint of a concentration-inhibition curve. Take `N=C(N)NN` [aminoguanidine, hydrazinecarboximidamide, reference compound]: in [1], the “Selectivity AChE/BuChE” value amounted to 0.23. Also, the IC50 in data set [1] (read-out: IC50 AChE) worked out at 75.14 ± 0.74 µM; in [2], 327 ± 18 µM. The “Cytotoxicity in HepG2 in words” value in data set [3] is “no significant cytotoxicity”.

On to `N=C(NN)NN` [1,3-diaminoguanidine, reference compound], for which, in data set [1], half-maximal inhibition (IC50) was put at 41.71 ± 0.23 µM and the “Selectivity AChE/BuChE” value was 0.15. For the same compound, in data set [2] (setting [17]), the IC50 amounted to 283 ± 8.94 µM. Moreover, in [3] (range of tested concentrations up to 500 µM), the “Cytotoxicity in HepG2 in words” value is on record as “no significant cytotoxicity”.

For the compound `NNC(N)=O` [semicarbazide, reference compound], the “Selectivity AChE/BuChE” value in [1] came to 0.13. Besides, the IC50 in data set [1] (read-out: IC50 AChE) amounted to 48.1 ± 0.84 µM; in data set [2] it was 365 ± 16.8 µM. Besides, the “Cytotoxicity in HepG2 in words” value in data set [3] is recorded as “no significant cytotoxicity”.

As to `NNC(N)=S` [thiosemicarbazide, reference compound], the “Selectivity AChE/BuChE” value in data set [1] was 0.14. Moreover, the IC50 was 46.1 ± 1.1 µM in [1] (read-out: IC50 AChE) and 327.8 ± 3.22 µM in [2]. Besides, in [3], the “Cytotoxicity in HepG2 in words” value is “no significant cytotoxicity”.

For the compound `[H]/N=C(\N)NN=Cc1cc(Cl)cc(I)c1O` [Compound 1l, (E)-2-(5-Chloro-2-hydroxy-3-iodobenzylidene)hydrazine-1-carboximidamide], the MIC stood at 500 µM (≈ 169 µg/mL) in data set [4] (ATCC29213, 24 h, read-out: MIC SA 24 h); 500 µM (≈ 169 µg/mL) in data set [4] (ATCC29213, 48 h, read-out: MIC SA 48 h); 250 µM (≈ 84.6 µg/mL) in data set [5] (24 h, read-out: MIC MRSA 24 h); 250 µM (≈ 84.6 µg/mL) in [5] (48 h, read-out: MIC MRSA 48 h); 250 µM (≈ 84.6 µg/mL) in data set [6] (ATCC12228, 24 h, read-out: MIC SE 24 h); 250 µM (≈ 84.6 µg/mL) in [6] (ATCC12228, 48 h, read-out: MIC SE 48 h). The MIC came out at 250 µM (≈ 84.6 µg/mL) in data set [7] (ATCC29212, 24 h, read-out: MIC EF 24 h); 250 µM (≈ 84.6 µg/mL) in data set [7] (ATCC29212, 48 h, read-out: MIC EF 48 h); 250 µM (≈ 84.6 µg/mL) in data set [8] (ATCC25922, 24 h, read-out: MIC EC 24 h); 250 µM (≈ 84.6 µg/mL) in [8] (ATCC25922, 48 h, read-out: MIC EC 48 h); 500 µM (≈ 169 µg/mL) in data set [9] (ATCC19606, 24 h, read-out: MIC ACI 24 h); 500 µM (≈ 169 µg/mL) in data set [9] (ATCC19606, 48 h, read-out: MIC ACI 48 h). In addition, the MIC in data set [10] (ATCC27853, 24 h, read-out: MIC PA 24 h) is greater than 500 µM; in [10] (ATCC27853, 48 h, read-out: MIC PA 48 h) it was greater than 500 µM; in data set [11] (ATCC24443, 24 h, read-out: MIC CA 24 h), greater than 500 µM; in data set [11] (ATCC24443, 48 h, read-out: MIC CA 48 h), greater than 500 µM; in data set [12] (ATCC6258, 24 h, read-out: MIC CK 24 h), 500 µM (≈ 169 µg/mL); in [12] (ATCC6258, 48 h, read-out: MIC CK 48 h), 500 µM (≈ 169 µg/mL). For the same compound, the MIC was 500 µM (≈ 169 µg/mL) in [13] (ATCC22019, 24 h, read-out: MIC CP 24 h); 500 µM (≈ 169 µg/mL) in [13] (ATCC22019, 48 h, read-out: MIC CP 48 h); 500 µM (≈ 169 µg/mL) in data set [14] (ATCC750, 24 h, read-out: MIC CT 24 h); 500 µM (≈ 169 µg/mL) in [14] (ATCC750, 48 h, read-out: MIC CT 48 h); 125 µM (≈ 42.3 µg/mL) in [15] (ATCC9533, 72 h, read-out: MIC TI 72 h); 125 µM (≈ 42.3 µg/mL) in [15] (ATCC9533, 120 h, read-out: MIC TI 120 h). The “Selectivity AChE/BuChE” value in data set [1] came out at 4.08. Further, the concentration for half-maximal inhibition (IC50) in data set [1] (mean ± SD, n = three independent experiments, ATCh 40 µM, read-out: IC50 AChE) was 22.1 ± 0.55 µM; in [2] (setting [17]), < 20 µM and 5.42 µM. Moreover, in [16] (24 h incubation), the “MIC KP 24 h” value is 250 µM (≈ 84.6 µg/mL). Moreover, the “MIC KP 48 h” value in [16] (48 h incubation) stood at 250 µM (≈ 84.6 µg/mL).

These data come from publication PMC8704707 (Pharmaceuticals, 2021).
